The text below walks through data of DBAASP.

Experiment in all cases: ≥ marks a high value that may be exact or a test limit, other limits are often not marked, values filed in µg/mL are converted to µM
Assay [1] has as its system Micrococcus luteus.
Assay [2] has as its system Staphylococcus aureus.
Assay [3] relates to Escherichia coli ATCC 25922.
Assay [4] has as its system Bacillus subtilis 168.
For assay [5], the system named is Staphylococcus epidermidis ATCC 12228.
For assay [6], the system named is Staphylococcus aureus ATCC 29213.
The subject of assay [7] is Bacillus subtilis ATCC 23857.
Assay [8] deals with Escherichia coli ATCC 25726.
Assay [9] deals with Staphylococcus aureus ATCC 25923.
In assay [10] the test system is Acinetobacter baumannii ATCC 19606.
Assay [11] relates to Pseudomonas aeruginosa ATCC 27853.
Assay [12] has as its system Enterococcus faecalis ATCC 29212.
The subject of assay [13] is Klebsiella pneumoniae ATCC 700603.
Assay [14] concerns Pseudomonas aeruginosa ATCC 9027.

Values after ≈ are worked out from the molar mass of the structure shown. Where only a bound is given, the exact number is not on record here.

Regarding `CSCC[C@H](NC(=O)[C@H](C)NC(=O)[C@H](CCCCN)NC(=O)[C@H](CCCN=C(N)N)NC(=O)[C@H](C)NC(=O)[C@H](CCCN=C(N)N)NC(=O)[C@H](CCC(=O)O)NC(=O)[C@@H](NC(=O)[C@H](CCCCN)NC(=O)CNC(=O)CNC(=O)CNC(=O)[C@H](Cc1ccccc1)NC(=O)[C@H](CCCCN)NC(=O)[C@@H](N)CCCCN)[C@@H](C)O)C(=O)N[C@@H](C)C(=O)N[C@H](C(=O)N[C@@H](CCC(=O)O)C(=O)O)C(C)C` [KKFGGGKTERARKAMAVE], the MIC in [1] was found to be 31.8 µM (≈ 62.5 µg/mL); in [2] it was 7.94 µM (≈ 15.6 µg/mL); in assay [3], 31.8 µM (≈ 62.5 µg/mL); in [4] it was 7.94 µM (≈ 15.6 µg/mL).
`CC[C@H](C)[C@H](N)C(=O)N[C@@H](CC(=O)O)C(=O)N[C@@H](Cc1c[nH]c2ccccc12)C(=O)N[C@@H](CCCCN)C(=O)N[C@@H](CCCCN)C(=O)N[C@@H](CC(C)C)C(=O)N[C@@H](CC(C)C)C(=O)N1CCC[C@H]1C(=O)N[C@@H](C)C(=O)N[C@@H](C)C(=O)N[C@@H](CCCCN)C(=O)N[C@@H](CCC(N)=O)C(=O)N[C@H](C(=O)N[C@@H](CC(C)C)C(N)=O)[C@@H](C)CC` [IDWKKLLPAAKQIL]: the MIC was 256 µM (≈ 419 µg/mL) in [5], 512 µM (≈ 838 µg/mL) in assay [6], ≥ 32 µM in assay [7] and 128 µM (≈ 209 µg/mL) in assay [3].
For the compound `CC[C@H](C)[C@H](NC(=O)CNC(=O)[C@@H](NC(=O)[C@H](CCSC)NC(=O)[C@H](C)NC(=O)[C@H](CC(N)=O)NC(=O)[C@H](CCCCN)NC(=O)[C@H](Cc1ccccc1)NC(=O)[C@H](CO)NC(=O)[C@H](CC(=O)O)NC(=O)[C@H](CC(C)C)NC(=O)[C@H](CC(C)C)NC(=O)CN)[C@@H](C)CC)C(=O)N[C@@H](C)C(=O)N[C@@H](CCCCN)C(=O)N[C@@H](CO)C(=O)N[C@@H](C)C(=O)NCC(=O)N[C@@H](CCCCN)C(=O)N[C@H](C(=O)N[C@@H](C)C(=O)N[C@@H](CC(C)C)C(=O)N[C@@H](CC(N)=O)C(=O)N[C@@H](CCCCN)C(=O)N[C@H](C(=O)N[C@@H](C)C(=O)N[C@H]1CSSC[C@@H](C(=O)O)NC(=O)[C@H]([C@@H](C)O)NC(=O)[C@H](CCCCN)NC(=O)[C@H](CC(=O)O)NC(=O)[C@H]([C@@H](C)CC)NC(=O)[C@H](CCCCN)NC1=O)[C@@H](C)CC)[C@@H](C)O` [GLLDSFKNAMIGIAKSAGKTALNKIACKIDKTC], the minimum inhibitory concentration (MIC) in assay [8] is 18.2 µM (≈ 62.5 µg/mL); in assay [9] it was > 73 µM.
For the compound `CC[C@H](C)[C@H](NC(=O)CN)C(=O)N[C@H](C(=O)N[C@@H](C)C(=O)N[C@@H](C)C(=O)N[C@H](C(=O)N[C@H](C(=O)N[C@H](C(=O)N[C@@H](CCCCN)C(=O)N[C@H](C(=O)N[C@@H](CCCCN)C(=O)N[C@@H](CCCCN)C(N)=O)[C@@H](C)CC)[C@@H](C)CC)[C@@H](C)CC)[C@@H](C)CC)[C@@H](C)CC` [GIIAAIIIKIKK], the values for the MIC in assay [7] and in assay [3] were 16 µM (≈ 20.5 µg/mL) and > 128 µM, respectively.
As to `CC[C@H](C)[C@H](NC(=O)[C@H](CCCCN)NC(=O)[C@H](CO)NC(=O)[C@H](C)NC(=O)[C@H](Cc1c[nH]c2ccccc12)NC(=O)CN)C(=O)NCC(=O)N[C@@H](CCC(N)=O)C(=O)N[C@@H](C)C(=O)N[C@@H](CC(C)C)C(=O)NCC(=O)N[C@@H](CCCCN)C(=O)N[C@H](C(=O)N[C@@H](C)C(=O)N[C@@H](CCCCN)C(=O)N[C@H](C(=O)NCC(=O)N[C@@H](CC(C)C)C(=O)N[C@@H](CCC(N)=O)C(=O)N[C@@H](CCC(N)=O)C(=O)N[C@@H](Cc1ccccc1)C(=O)N[C@H](C(=O)N[C@@H](CCC(N)=O)C(=O)N1CCC[C@H]1C(=O)N[C@@H](CCCCN)C(=O)O)[C@@H](C)CC)C(C)C)C(C)C` [GWASKIGQALGKVAKVGLQQFIQPK], the figures for the MIC in [8] and in assay [9] were 12.5 µM (≈ 33.2 µg/mL) and > 100 µM, respectively.
The matching figures for `CC[C@H](C)[C@H](NC(=O)[C@H](C)NC(=O)[C@@H](NC(=O)[C@H](CCCCN)NC(=O)[C@H](C)NC(=O)[C@H](CC(C)C)NC(=O)[C@H](CCCCN)NC(=O)CNC(=O)[C@H](CC(C)C)NC(=O)[C@@H](NC(=O)[C@H](CO)NC(=O)CNC(=O)[C@H](C)NC(=O)[C@H](CCCCN)NC(=O)[C@H](CO)NC(=O)[C@H](C)NC(=O)[C@H](CCSC)NC(=O)CN)C(C)C)C(C)C)C(=O)NCC(=O)N[C@@H](C)C(=O)N[C@@H](CC(C)C)C(N)=O` [GMASKAGSVLGKLAKVAIGAL]: 25 µM (≈ 48.5 µg/mL) and 100 µM (≈ 194 µg/mL).
As to `CC(C)C[C@H](NC(=O)[C@H](CC(C)C)NC(=O)[C@@H](NC(=O)[C@H](CCCCN)NC(=O)[C@H](Cc1ccccc1)NC(=O)[C@H](CCCN=C(N)N)NC(=O)[C@H](CCCCN)NC(=O)[C@H](CC(C)C)NC(=O)[C@H](CC(C)C)NC(=O)CN)[C@@H](C)O)C(N)=O` [GLLKRFKTLL], the MIC in assay [10] was 256 µM (≈ 304 µg/mL); in assay [11], 16 µM (≈ 19 µg/mL); in assay [9] it was 128 µM (≈ 152 µg/mL); in [5] it was 16 µM (≈ 19 µg/mL); in [7], ≥ 32 µM; in assay [3], 64 µM (≈ 76 µg/mL). Further, the results for the MIC in [12] and in assay [13] were 256 µM (≈ 304 µg/mL) and 128 µM (≈ 152 µg/mL), respectively.
Consider `CC[C@H](C)[C@H](N)C(=O)N[C@@H](CC(=O)O)C(=O)N[C@@H](Cc1c[nH]c2ccccc12)C(=O)N[C@@H](CCCCN)C(=O)N[C@@H](CCCCN)C(=O)N[C@@H](CC(C)C)C(=O)N1CCC[C@H]1C(=O)N[C@@H](CC(=O)O)C(=O)N[C@@H](C)C(=O)N[C@@H](C)C(=O)N[C@@H](CCCCN)C(=O)N[C@@H](CCC(N)=O)C(=O)N[C@H](C(=O)N[C@@H](CC(C)C)C(N)=O)[C@@H](C)CC` [IDWKKLPDAAKQIL], for which the MIC in assay [5] is > 1020 µM; in [6] it was > 1020 µM; in assay [7] it was ≥ 512 µM; in assay [3], 1020 µM (≈ 1680 µg/mL).
Regarding `CC[C@H](C)[C@H](NC(=O)[C@H](C)NC(=O)[C@H](CCCCN)NC(=O)[C@H](C)NC(=O)[C@@H](NC(=O)[C@H](C)NC(=O)[C@H](CC(C)C)NC(=O)[C@H](CC(C)C)NC(=O)[C@H](C)NC(=O)[C@H](CCCCN)NC(=O)[C@H](CC(C)C)NC(=O)[C@H](CC(N)=O)NC(=O)[C@@H](N)CC(C)C)C(C)C)C(=O)N[C@@H](CC(C)C)C(N)=O` [LNLKALLAVAKAIL], the minimal inhibitory concentration (MIC) was 16 µM (≈ 23.2 µg/mL) in [14]; 4 µM (≈ 5.8 µg/mL) in assay [9]; 8 µM (≈ 11.6 µg/mL) in [7]; 8 µM (≈ 11.6 µg/mL) in assay [3]; 16 µM (≈ 23.2 µg/mL) in assay [13].
For `CC[C@H](C)[C@H](N)C(=O)N[C@H](C(=O)N[C@H](C(=O)N1CCC[C@H]1C(=O)N1CCC[C@H]1C(=O)N[C@H](C(=O)N[C@H](C(=O)N[C@@H](CCCCN)C(=O)N[C@@H](CC(=O)O)C(=O)N[C@H](C(=O)N[C@@H](CC(C)C)C(=O)N[C@@H](CCCCN)C(=O)N[C@@H](CCCCN)C(=O)N[C@@H](Cc1ccccc1)C(=O)N[C@@H](Cc1ccccc1)C(=O)N[C@@H](CCCCN)C(=O)NCC(=O)NCC(=O)N[C@H](C(=O)N[C@@H](C)C(=O)NCC(=O)N[C@H](C(=O)N[C@@H](CCSC)C(=O)NCC(=O)N[C@@H](CCCCN)C(=O)N[C@@H](CO)C(=O)N[C@@H](CCC(N)=O)C(=O)O)C(C)C)[C@@H](C)CC)[C@@H](C)O)C(C)C)[C@@H](C)CC)[C@@H](C)CC)[C@@H](C)O` [ITIPPIVKDTLKKFFKGGIAGVMGKSQ], the values for the MIC in [8] and in assay [9] were ≥ 80 µM and 40 µM (≈ 115 µg/mL), respectively.
`CC[C@H](C)[C@H](NC(=O)CN)C(=O)N[C@@H](C)C(=O)N[C@@H](C)C(=O)NCC(=O)N[C@H](C(=O)N[C@H](C(=O)N[C@H](C(=O)N[C@@H](CCCCN)C(=O)N[C@H](C(=O)N[C@@H](CCCCN)C(=O)N[C@@H](CCCCN)C(N)=O)[C@@H](C)CC)[C@@H](C)CC)[C@@H](C)CC)[C@@H](C)CC` [GIAAGIIIKIKK]: the MIC in assay [7] was ≥ 32 µM; in assay [3] it was 32 µM (≈ 39.2 µg/mL).

The MIC is the smallest concentration in the dilution series that meets the test's criterion for growth inhibition. High values mean a less susceptible organism, low ones a more susceptible organism.
